Here are results for two molecules from BindingDB's records for doi:10.1021/jm801490z (Nantong University, 2021).

Structures are written as SMILES.

For test [1], the target named is T1, Replicase polyprotein 1ab (Severe acute respiratory syndrome coronavirus 2, UniProt P0DTD1). In words: Inhibition of SARS-CoV-2 Main protease (3264 to 3569 residues) expressed in Escherichia coli BL21-Gold (DE3) using Dabcyl-KTSAVLQSGFRKM-E(Edans)-NH2 as substrate by FRET assay.
The target of test [2] is T1, Replicase polyprotein 1ab. As to the kind of experiment: Inhibition of SARS-CoV-2 3CL protease expressed in Escherichia coli using Dabcyl-KTSAVLQSGFRKM-E(Edans)-NH2 as substrate preincubated for 30 mins followed by substrate addition and measured after 3 hrs.

`CC(C)(C)OC(=O)Nc1ccn([C@@H](CC2CC2)C(=O)N[C@@H](C[C@@H]2CCNC2=O)C(=O)C(=O)NCc2ccccc2)c(=O)c1` registered a half-inhibitory concentration (IC50) in test [1] of 670 nM. `Cn1nc(-c2ccc(C(F)(F)F)cc2)nc2c(=O)n(C)c(=O)cc1-2` returned a half-inhibitory concentration (IC50) in test [2] of 260 nM.
